A short description of experiment [1]: Interference with l-lactate measurement in saline (L-Lactate Accuvin test strips). The following applies: d-lactic acid (0.05 mg) + l-lactic acid (0.06 mg). As for the experimental part:
Forty mg of d-lactic acid (Sigma-Aldrich, St. Louis, Mo.; catalog no. L0625) was polymerized in a microwave oven according to the method of Pandey and Aswath (J Biomater Sci Polym Ed. 2009; 20(1):33-48). Briefly, d-lactic acid was transferred to 2 ml Reacti-Vials (Pierce Chemical Co., Rockford, Ill.) and the polymerization was carried out vented in a GE Spacemaker Model JVM 1650WH05 (Serial #900524B; manufactured April 2006) with an RF output frequency of 2450 MHz in the absence of any added solvent or catalyst. Polymerization was carried out starting at Power 1 setting on the microwave and weighing at 30 second intervals. […] Weight loss was from water during polymer esterification and dehydration. During the course of the microwave process, d-lactic acid crystals undergo a state change from a solid to a liquid and then to a gel at the end of the process. Similar procedure was used to produce PLLA with l-lactic acid.
[…] Measurement of l-lactate with L-Lactate Accuvin Test strips (Accuvin LLC, Napa, Ca), using stereospecific lactate dehydrogenase and a tetrazolium color indicator, measured less l-lactate (interference) in the experimental sample as evidenced by colorimetric determination. Experimental sample vs, control measured 10 mg/L vs, 50 mg/L of l-lactate. Other relevant tests using similar methodology and D-Lactate Accuvin Test strips are as follows:

The nature of experiment [2]: Interference with d-lactate measurement in saline (D-Lactate Accuvin test strips). The following applies: similar methodology.

SMILES strings stand for the structures.

Consider `C[C@@H](O)C(=O)O` [d-lactic acid], for which the l-lactate test strip in experiment [1] is recorded as 50 mg/L.

Consider `C[C@H](O)C(=O)O` [l-lactic acid], for which the “Interference with lactate measurement (in words)” value in experiment [2] was “No interference”.

The values are drawn from patent US8920789B2, “Use of polymer D-lactic acid (PDLA) or equivalents thereof to inhibit growth of cancer cells and diagnose cancers” (The United States of America as represented by the …, priority 2011, dated 2014).
